US10961215B2, “N-aryl and N-heteroaryl piperidine derivatives as liver X receptor beta agonists, compositions, and their use” (Merck Sharp & Dohme Corp., priority 2016, dated 2021)

Experiments:
[1] = biological target: T1, GST tagged LXRalpha LBD (ligand binding domain) (Homo sapiens, UniProt Q13133); assay: LanthaScreen TR-FRET Liver X Receptor Coactivator Assay, LXR alpha-LBD (co-activator recruitment; IP and % Emax relative to T0901317); type: biochemical; conditions: for EC50 / LXR alpha IP (nM): Inflection Point of co-activator recruitment, LXR alpha-LBD, TR-FRET; for Emax: read-out: LXR alpha actiivty at max dose (%)
T1 construct: purchased Invitrogen pv4655
T1 sequence (Q13133 209-447 limits assumed): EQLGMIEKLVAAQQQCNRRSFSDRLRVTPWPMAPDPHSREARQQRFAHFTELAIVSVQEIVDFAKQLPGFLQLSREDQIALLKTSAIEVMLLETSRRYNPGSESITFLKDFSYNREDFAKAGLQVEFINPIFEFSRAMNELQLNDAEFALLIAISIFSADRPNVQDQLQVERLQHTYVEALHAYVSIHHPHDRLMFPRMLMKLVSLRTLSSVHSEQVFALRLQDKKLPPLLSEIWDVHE
Description: (§1) Potency (Inflection Point, IP) and efficacy (Emax) are evaluated via compound-induced co-activator recruitment to glutathione-S-transferase (GST) tagged LXRbeta and LXRalpha LBD (ligand binding domain) proteins in relation to reference dual agonist compound T0901317 (N-(2,2,2-Trifluoroethyl)-N-[4-[2,2,2-trifluoro-1-hydroxy-1-(trifluoromethyl)ethyl]phenyl]benzenesulfonamide) using the LanthaScreen™ TR-FRET Liver X Receptor Coactivator Assays according to manufacturer's instructions (Invitrogen catalog number pv4658.pps and pv4655). While running the LanthaScreen™ TR-FRET Liver X Receptor Coactivator Assay, LXR alpha-LBD or LXR beta-LBD was added to ligand test compounds followed by addition of a mixture of a fluorescein-labelled coactivator peptide and terbium-conjugated anti-GST antibody. After an incubation period at room temperature, TR-FRET (time-resolved fluorescence resonance energy transfer) was measured using a filter-based instrument capable of TR-FRET, e.g. PerkinElmer Envision.

[2] = biological target: T2, GST tagged LXRbeta LBD (ligand binding domain) (Homo sapiens, UniProt P55055); assay: LanthaScreen TR-FRET Liver X Receptor Coactivator Assay, LXR beta-LBD (co-activator recruitment; IP and % Emax relative to T0901317); type: biochemical; conditions: for EC50: Inflection Point of co-activator recruitment, LXR beta-LBD, TR-FRET; for Emax: read-out: LXR beta actiivty at max dose (%)
T2 construct: purchased Invitrogen pv4658.pps
T2 sequence (P55055 222-460 limits assumed): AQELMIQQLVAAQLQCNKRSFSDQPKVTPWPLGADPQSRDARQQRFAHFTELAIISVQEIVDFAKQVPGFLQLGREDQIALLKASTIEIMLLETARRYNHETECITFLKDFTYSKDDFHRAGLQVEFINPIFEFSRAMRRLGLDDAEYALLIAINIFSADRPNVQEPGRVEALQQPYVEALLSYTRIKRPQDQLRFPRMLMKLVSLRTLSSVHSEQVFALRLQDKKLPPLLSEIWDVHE
Description: as §1

[3] = efficacy at max dose in relation to reference T0901317, LXR alpha-LBD
[4] = efficacy at max dose in relation to reference T0901317, LXR beta-LBD

| SMILES | EC50 [1] | Emax [1, 3] | EC50 [2] | Emax [2, 4] | LXR alpha actiivty at max dose (%) [1, 3] | LXR beta actiivty at max dose (%) [2, 4] | LXR alpha IP (nM) [1] |
| --- | --- | --- | --- | --- | --- | --- | --- |
| CC(C)[C@@](O)(C(=O)N(C)CCCC1CCN(c2ccc(C(=O)N(C)C)c(Cl)n2)CC1)C(F)(F)F [Example 1-3, (R)-2-chloro-6-(4-(3-(2-hydroxy-N,3-dimethyl-2-(trifluoromethyl)butanamido)propyl)piperidin-1-yl)-N,N-dimethylnicotinamide] | 1780 nM | 40% | 159 nM | 102% | – | – | – |
| CN(C)C(=O)c1ccc(N2CCC(CCCN(C)C(=O)[C@](O)(c3ccccc3)C(F)(F)F)CC2)nc1Cl [Example 1-1, (R)-2-chloro-N,N-dimethyl-6-(4-(3-(3,3,3-trifluoro-2-hydroxy-N-methyl-2-phenylpropanamido)propyl)piperidin-1-yl)nicotinamide] | 752 nM | – | – | – | 27% | 78% | – |
| COc1cccc([C@@](O)(C(=O)N(C)CC2CC3(CCN(c4ccc(C(=O)N(C)C)c(Cl)n4)CC3)C2)C(F)(F)F)c1 [Example 14-1, 2-chloro-N,N-dimethyl-6-(2-(((R)-3,3,3-trifluoro-2-hydroxy-2-(3-methoxyphenyl)-N-methylpropanamido)methyl)-7-azaspiro[3.5]nonan-7-yl)nicotinamide] | – | 5% | 35 nM | 42% | – | – | No IP |
| COc1cccc([C@](O)(C(=O)N(C)CCCC2CCN(c3ccc(C(=O)N(C)C)c(Cl)n3)CC2)C(F)(F)F)c1 [Example 1-27, (S)-2-chloro-N,N-dimethyl-6-(4-(3-(3,3,3-trifluoro-2-hydroxy-2-(3-methoxyphenyl)-N-methylpropanamido)propyl)piperidin-1-yl)nicotinamide] | – | 3% | 603 nM | 53% | – | – | No IP |
| CN(C)C(=O)c1ccc(N2CCC(CCCN(C)C(=O)[C@](O)(c3cccc(OC(F)(F)F)c3)C(F)(F)F)CC2)nc1Cl [Example 1-40, (R)-2-chloro-N,N-dimethyl-6-(4-(3-(3,3,3-trifluoro-2-hydroxy-N-methyl-2-(3-(trifluoromethoxy)phenyl)propanamido)propyl)piperidin-1-yl)nicotinamide] | – | 0% | 52 nM | 63% | – | – | No IP |
| COc1cccc([C@@](O)(C(=O)N(C)CC(F)CC2CCN(c3ccc(C(=O)N(C)C)c(Cl)n3)CC2)C(F)(F)F)c1 (stereo partly drawn) [Example 3-3, 2-chloro-6-(4-(2-fluoro-3-((R)-3,3,3-trifluoro-2-hydroxy-2-(3-methoxyphenyl)-N-methylpropanamido)propyl)piperidin-1-yl)-N,N-dimethylnicotinamide] | – | 6% | 373 nM | 49% | – | – | No IP |
| CN(C)C(=O)c1ccc(N2CCC(CC3CC(NC(=O)[C@](O)(c4ccccc4)C(F)(F)F)C3)CC2)nc1Cl (stereo partly drawn) [Example 11-2, (R)-2-chloro-N,N-dimethyl-6-(4-((3-(3,3,3-trifluoro-2-hydroxy-2-phenylpropanamido)cyclobutyl)methyl)piperidin-1-yl)nicotinamide] | 2390 nM | 28% | 273 nM | 118% | – | – | – |
| CCN(CC)C(=O)c1ccc(N2CCC(CCCN(C)C(=O)[C@](O)(c3cccc(OC)c3)C(F)(F)F)CC2)cc1Cl [Example 4-9, (R)-2-chloro-N,N-diethyl-4-(4-(3-(3,3,3-trifluoro-2-hydroxy-2-(3-methoxyphenyl)-N-methylpropanamido)propyl)piperidin-1-yl)benzamide] | – | 0% | 72 nM | 40% | – | – | No IP |
| COc1cccc([C@@](O)(C(=O)N(C)CCCC2(C)CCN(c3ccc(C(=O)N(C)C)c(Cl)n3)CC2)C(F)(F)F)c1 [Example 9-1, (R)-2-chloro-N,N-dimethyl-6-(4-methyl-4-(3-(3,3,3-trifluoro-2-hydroxy-2-(3-methoxyphenyl)-N-methylpropanamido)propyl)piperidin-1-yl)nicotinamide] | – | 0% | 16 nM | 37% | – | – | No IP |
| CNC(=O)c1ccc(N2CCC(CC3CC(NC(=O)[C@](O)(c4cccc(OC)c4)C(F)(F)F)C3)CC2)cc1Cl (stereo partly drawn) [Example 11-5, (R)-2-chloro-N-methyl-4-(4-((3-(3,3,3-trifluoro-2-hydroxy-2-(3-methoxyphenyl)propanamido)cyclobutyl)methyl)piperidin-1-yl)benzamide] | – | 7% | 653 nM | 53% | – | – | No IP |
| COc1cccc([C@@](O)(C(=O)Nc2cccc(C3CCN(c4ccc(C(=O)N(C)C)c(Cl)n4)CC3)c2)C(F)(F)F)c1 [Example 10-4, (R)-2-chloro-N,N-dimethyl-6-(4-(3-(3,3,3-trifluoro-2-hydroxy-2-(3-methoxyphenyl)propanamido)phenyl)piperidin-1-yl)nicotinamide] | – | 0% | 649 nM | 49% | – | – | No IP |
| COc1cccc([C@@](O)(C(=O)N(C)CCCC2CCN(c3ccc(C(=O)N4CC(NC(=O)OC(C)(C)C)C4)c(Cl)n3)CC2)C(F)(F)F)c1 [Example 2-9, (R)-tert-butyl 1-(2-chloro-6-(4-(3-(3,3,3-trifluoro-2-hydroxy-2-(3-methoxyphenyl)-N-methylpropanamido)propyl)piperidin-1-yl)nicotinoyl) azetidin-3-ylcarbamate] | 164 nM | 45% | 9 nM | 65% | – | – | – |
| CN(C)C(=O)c1ccc(N2CCC([C@@H]3C[C@H]3CN(C)C(=O)[C@](O)(c3ccccc3)C(F)(F)F)CC2)cc1Cl [Example 15-19, 2-chloro-N,N-dimethyl-4-(4-((1S,2R)-2-(((R)-3,3,3-trifluoro-2-hydroxy-N-methyl-2-phenylpropanamido)methyl)cyclopropyl)piperidin-1-yl)benzamide] | – | 0% | 127 nM | 72% | – | – | No IP |
| CC(C)[C@@]1(C(=O)N(C)CCCC2CCN(c3ccc(C(=O)N(C)C)c(Cl)n3)CC2)CCCO1 [Example 1-18, (R)-2-chloro-6-(4-(3-(2-isopropyl-N-methyl-tetrahydrofuran-2-ycarboxamido)propyl)piperidin-1-yl)-N,N-dimethylnicotinamide] | – | 13% | 564 nM | 41% | – | – | No IP |
| CN(C)C(=O)c1ccc(N2CCC(CCCN(C)C(=O)[C@@](O)(c3ccccc3)C3CC3)CC2)nc1Cl [Example 1-25, (S)-2-chloro-6-(4-(3-(2-cyclopropyl-2-hydroxy-N-methyl-2-phenylacetamido)propyl)piperidin-1-yl)-N,N-dimethylnicotinamide] | 3360 nM | 26% | 110 nM | 71% | – | – | – |
| CN(C)C(=O)c1ccc(N2CCC([C@H]3C[C@H]3CN(C)C(=O)[C@](O)(c3cccc(C4CC4)c3)C(F)(F)F)CC2)nc1Cl [Example 15-5, 2-chloro-6-(4-((1R,2R)-2-(((R)-2-(3-cyclopropylphenyl)-3,3,3-trifluoro-2-hydroxy-N-methylpropanamido)methyl)cyclopropyl)piperidin-1-yl)-N,N-dimethylnicotinamide] | – | 18% | 16 nM | 75% | – | – | No IP |
| CN(C)C(=O)c1ccc(N2CCC(CCCN(C)C(=O)[C@@](O)(c3cccc(C(F)(F)F)c3)C(F)(F)F)CC2)nc1Cl [Example 1-48, (S)-2-chloro-N,N-dimethyl-6-(4-(3-(3,3,3-trifluoro-2-hydroxy-N-methyl-2-(3-(trifluoromethyl)phenyl)pro-panamido)propyl)piperidin-1-yl)nicotinamide] | – | 2% | 333 nM | 43% | – | – | No IP |
| COc1cccc([C@@](O)(C(=O)N(C)CCCC2CCN(c3ccc(C(=O)N4CC[C@H](CO)C4)c(Cl)n3)CC2)C(F)(F)F)c1 [Example 2-8, (R)-N-(3-(1-(6-chloro-5-((S)-3-(hydroxymethyl)pyrrolidine-1-carbonyl)pyridin-2-yl)piperidin-4-yl)propyl)-3,3,3-trifluoro-2-hydroxy-2-(3-methoxyphenyl)-N-methylpropanamide] | 690 nM | 40% | 11 nM | 47% | – | – | – |
